Measured values published in paper PMC3835791, “Non-Invasive Imaging of Tumors by Monitoring Autotaxin Activity Using an Enzyme-Activated Near-Infrared Fluorogenic Substrate” (PLoS ONE, 2013).
Values belong to the compound of their own block, whether it stands above or below them.

Tests used:
[1] = biological target: T1, ATX in media from COS-7 cells (Homo sapiens, UniProt Q13822); assay: AR-2 activation by media from COS-7 cells transfected with ATX-encoding plasmid; type: cell-based; conditions: AR-2 1 µM
T1 construct: expressed in transfected cells; host or cells: COS-7
Method: COS-7 cells grown in Dulbecco's Modified Eagle Medium (DMEM) supplemented with 10% FBS and penicillin/streptomycin were transfected with human β ATX cDNA inserted into pcDNA DEST40 (Invitrogen, CA) or mock plasmid in DMEM without FBS using TransIT®-2020 transfection reagent (Mirus Bio, WI) according to the manufacturer's protocol.
(§1) Equal volumes of cell media (COS-7) or conditioned media (MDA-MB-231 or MDA-MB 435) were mixed with buffer to achieve a final concentration of AR-2 (1 µM). All other conditions were as described for purified enzymes.

[2] = biological target: T2, Purified human ATX (Homo sapiens, UniProt Q13822); assay: Michaelis constant of fluorogenic ATX substrates; type: biochemical; conditions: fluorogenic ATX substrate, rate of fluorescence increase at varying substrate concentrations
T2 construct: purchased Echelon Biosciences, Inc. (Salt Lake City, UT)
Method: (§2) AR-2 (100 nM) was incubated with the indicated enzyme in buffer containing 50 mM Tris-Cl pH 8.0, 5 mM KCl, 1 mM CaCl2, 1 mM MgCl2, 140 mM NaCl, and 1 mg/mL fatty acid free bovine serum albumin. Reactions were immediately placed in a Spectramax M2 plate reader (Molecular Devices, Sunnyvale, CA) set at 37°C, monitoring fluorescence exciting at 750 nm and emitting at 805 nm over time. Unless otherwise stated, all reactions used 10 nM enzyme, except alkaline phosphatase, which was performed at 0.1 unit/µL.
(§3) The Michaelis constant (Km) was determined for each compound by measuring the rate of fluorescence increase at varying substrate concentrations using Prism to fit to the Michaelis-Menton equation. Inner filter effects were overcome using previously described methods. The inhibition constant (Ki) for each set of reactions was determined from the IC50 following standard methods.

[3] = biological target: T3, human ATX (Homo sapiens, UniProt Q13822); assay: AR-2 reactions with purified enzymes: human ATX; type: biochemical; conditions: AR-2 100 nM, 10 nM enzyme
T3 construct: purchased Echelon Biosciences, Inc. (Salt Lake City, UT)
Method: as §2

[4] = tested on: MDA-MB-231 orthotopic tumor (ATX activity); assay: In vivo NIRF imaging and ex vivo tissue analysis of mice with orthotopic tumors
Description: Animal studies were approved by the Institutional Animal Care and Use Committee (IACUC) of the University of Utah (protocol numbers 10-10016 and 12-05013). Tumors in mice were established as previously described, [41]. Briefly, approximately ten-week old female nude (Nu/Nu) mice (Charles River Laboratories International, Wilmington, MA) were lightly anesthetized with isoflurane and subcutaneously inoculated with MDA-MB-231 cells in the left thoracic mammary glands. Prior to inoculation, cells were suspended in Extracel to make 5×10^7 cells/mL and each mouse received 0.1 mL of Extracel tumor suspension. To reduce auto-fluorescence arising from the feed, mice were switched to specially formulated diet (2920X, Harlan Laboratories, WI) at least two days prior to imaging.
Six weeks after tumor graft, mice were imaged using AR-2. To visualize tumors, AR-2 was diluted in PBS, filtered through a 0.2 µm porous membrane, and intravenously injected via the lateral vein at 0.5 mg/kg b.w. bolus. The animals were then imaged 48 h after injection with a Pearl Impulse Imager (LI-COR Biosciences, NE) using the 800 nm channel. The fluorescence signals from acquired images were analyzed using Pearl Impulse Software v 2.0 (LI-COR Biosciences) according the manufacturer's protocols. […] ATX-Red dosing, delivery and imaging were unchanged.
Animals were sacrificed, organs were dissected and weighed, then ex vivo fluorescence was imaged and quantified as previously described. Tumors were immediately frozen until further use. Thawed tumors were homogenized in ice cold buffer containing 10 mM Tris pH 7.4, 200 mM NaCl, 10% glycerin, 5 mM EDTA and 1× Halt protease inhibitor cocktail (Thermo Scientific, Rockford, Il.) at a ratio of 40 mg tumor to 1 mL buffer. Samples were centrifuged at 14,000× g at 4°C. ATX levels were determined by diluting supernatants ten times in RD5-10 and assayed using a Human ENPP-2/Autotaxin ELISA (R&D Systems, Minneapolis, MN) and an Autotaxin Sandwich ELISA (Echelon Biosciences, Inc., Salt Lake City, UT) using the manufacturers' protocol. Total protein levels were determined by the method of Bradford. Statistical significance was compared using a two-tailed t-test using Prism.

[5] = tested on: human NPP1, human and mouse NPP7, shrimp alkaline phosphatase, human LPLA2 and human INPP4A; assay: AR-2 reactions with purified enzymes homologous to ATX (selectivity panel); type: biochemical; conditions: AR-2 100 nM, 10 nM enzyme (alkaline phosphatase 0.1 unit/µL), versus buffer control
Method: as §2

[6] = biological target: T4, mouse ATX (Mus musculus, UniProt Q9R1E6); assay: AR-2 reactions with purified enzymes: mouse ATX; type: biochemical; conditions: AR-2 100 nM, 10 nM enzyme
T4 construct: purchased R&D Systems (Minneapolis, MN)
Method: as §2

[7] = Pharmacokinetics of AR-2 in plasma after intravenous dosing; type: in vivo, mice
Method: To investigate preliminary PK of AR-2, female BALB/c mice aged 8–10 wks old (Charles River Laboratories, MA) were used. The animals were allowed to acclimatize to housing at least one week prior to use. At day 0, AR-2 was administered as a single bolus injection through lateral tail vein at a dosage of 1.0 mg/kg b.w. The animals were then lightly anesthetized with isoflurane for blood collection at 0, 0.08, 0.25, 0.5, 1, 2, 4, 6, 24, and 48 h after AR-2 administration. Blood samples were collected in EDTA coated tubes by submandibular bleeding or caudal vena cava (at time of sacrifice) with the maximum number of two blood collections from each animal. The collected blood samples were centrifuged, and the plasma was stored at −20°C until analysis.
To determine the concentration of AR-2 in plasma, samples were prepared according to the following procedures. Plasma samples were mixed with nine volumes of tert-butanol∶water (7∶1) then centrifuged at 14,000× g to pellet precipitated proteins. The resulting supernatant was frozen and lyophilized. Samples were then reconstituted in cold PBS and subjected to HPLC analysis using a C18 column (Waters, Milford, MA) with a gradient of 5–60% acetonitrile in 50 mM triethylammonium acetate (pH 6.0). Peaks with absorbance at 778 nm were integrated and compared to mouse plasma samples containing known concentrations of AR-2. The resulting AR-2 concentration versus time data were plotted and fitted with a sum of two exponentials to calculate plasma half-life (t1/2) and various pharmacokinetic parameters using the PK package in R Statistics (version 2.15.1).

[8] = biological target: T2, Purified human ATX; assay: Evaluation of ATX inhibition with fluorogenic substrates (AR-2 or FS-3); type: biochemical; conditions: human ATX 2 nM, 37°C, Ki determined from the IC50
Method: DMSO was spiked into each reaction mixture to equalize vehicle concentrations. Purified human ATX (2 nM final concentration) was mixed with varying concentrations of inhibitor at 37°C for 10 min, then AR-2 or FS-3 was added to a final concentration of 1 µM. The rates of fluorescence increase were measured for up to 2 h. The initial velocity of fluorescence increase was determined and normalized to control reactions. The IC50 of each compound was calculated by fitting a standard curve using a sigmoidal dose-response (variable slope) nonlinear regression curve using GraphPad Prism (version 5.03).
as §3

[9] = biological target: T5, ATX in conditioned media from MDA-MB-435 and MDA-MB-231 cells (Homo sapiens, UniProt Q13822); assay: AR-2 activation by conditioned media from cancer cells overexpressing ATX, with and without PF-8380; type: cell-based; conditions: PF-8380 1 µM, conditioned media from MDA-MB-435 or MDA-MB-231 cells, AR-2 1 µM
T5 construct: host or cells: MDA-MB-231 and MDA-MB-435 (conditioned media concentrated about 40-fold)
Method: MDA-MB-231 and MDA-MB-435 cells were grown to 80% confluence in Roswell Park Memorial Institute (RPMI) medium supplemented with 10% FBS. Cells were rinsed twice with PBS and grown for approximately 60 h in RPMI supplemented with 1% FBS. Media were centrifuged at 1000× g for 1 min to collect cells. Conditioned media was prepared by concentrating the supernatant ∼40-fold using Amicon Ultra YM30 (Millipore, Billerica, MA).
as §1

[10] = MDA-MB-231 xenografts, 48 h after AR-2 dosing, ex vivo

Km [2]: 0.66 ± 0.05 µM
activation of AR-2 fluorescence by human ATX [3]: activated AR-2 with similar efficiencies
NIRF signal in excised tumors compared to most other organs [4, 10]: strongly elevated
NIRF signal in kidneys and liver [4, 10]: Moderate signals
NIRF signal in stomach [4, 10]: Modest fluorescence
activation of AR-2 fluorescence by mouse ATX [6]: activated AR-2 with similar efficiencies
apparent volume of distribution (Vd) in 20 g mouse ([7]; 20 g mouse): 8.6 mL
fraction of AR-2 eliminated ([7]; 42 h after dosing (5 half-lives)): approximately 97%
half-life of first phase of bi-exponential plasma decrease ([7]; BALB/c mice, 1.0 mg/kg i.v. bolus, bi-exponential fit, first phase): 18 min
apparent volume of distribution (Vd) ([7]; mice, i.v.): 432 mL/kg, b.w.
apparent volume of distribution as share of body weight ([7]; mice, i.v.): ~43 % of body weight
Compound: CC1(C)C(/C=C/C2=C(Oc3ccc(S(=O)(=O)O)cc3)C(=C/C=C3/N(CCCCS(=O)(=O)O)c4ccc(S(=O)(=O)[O-])cc4C3(C)C)/CCC2)=[N+](CCCCCC(=O)NCCCCCC(=O)OC[C@@H](O)COP(=O)(O)OCCNC(=O)CCOCCOCCOCCOCCNC(=O)CCCCCN2/C(=C/C=C3\CCCC(/C=C/C4=[N+](CCCS(=O)(=O)O)c5ccc(N(CCCS(=O)(=O)O)CCCS(=O)(=O)O)cc5C4(C)C)=C3Cl)C(C)(C)c3c2ccc2cc(S(=O)(=O)[O-])ccc32)c2ccc(S(=O)(=O)O)cc21 [AR-2]
activation of AR-2 by media from ATX-transfected versus mock-transfected COS-7 cells [1]: media from ATX-transfected, but not mock-transfected, cells activated AR-2
activation of AR-2 fluorescence by related enzymes [5]: none of the related enzymes tested generated a fluorescence response above buffer control

Ki ([8]; ATX substrate AR-2 (1 µM)): 1.6 ± 1.9 nM
Ki ([8]; ATX substrate FS-3 (1 µM)): 5.5 ± 3.3 nM
Compound: CCCCCCCCCCCCCC(=O)Nc1ccc(CP(=O)(O)O)cc1 [S32826]

rate of AR-2 fluorescence signal generation in conditioned media with inhibitor [9]: dramatically reduced
Compound: O=C(CCN1CCN(C(=O)OCc2cc(Cl)cc(Cl)c2)CC1)c1ccc2[nH]c(=O)oc2c1 [PF-8380, reference compound]
AR-2 fluorescence signals in excised tumors normalized to protein, inhibitor-treated versus vehicle-treated mice ([4]; PF-8380 30 mg/kg single oral gavage 20 min prior to AR-2 injection, MDA-MB-231 tumors, P<0.001): significantly reduced
